The source of these data is ChEMBL document CHEMBL1123161, “Synthesis and evaluation of 4-(substituted thio)-4-androstene-3,17-dione derivatives as potential aromatase inhibitors” (J Med Chem, 1986).

For series [1], the target named is T1, Aromatase (Homo sapiens, UniProt P11511).
T1 sequence (P11511 whole entry): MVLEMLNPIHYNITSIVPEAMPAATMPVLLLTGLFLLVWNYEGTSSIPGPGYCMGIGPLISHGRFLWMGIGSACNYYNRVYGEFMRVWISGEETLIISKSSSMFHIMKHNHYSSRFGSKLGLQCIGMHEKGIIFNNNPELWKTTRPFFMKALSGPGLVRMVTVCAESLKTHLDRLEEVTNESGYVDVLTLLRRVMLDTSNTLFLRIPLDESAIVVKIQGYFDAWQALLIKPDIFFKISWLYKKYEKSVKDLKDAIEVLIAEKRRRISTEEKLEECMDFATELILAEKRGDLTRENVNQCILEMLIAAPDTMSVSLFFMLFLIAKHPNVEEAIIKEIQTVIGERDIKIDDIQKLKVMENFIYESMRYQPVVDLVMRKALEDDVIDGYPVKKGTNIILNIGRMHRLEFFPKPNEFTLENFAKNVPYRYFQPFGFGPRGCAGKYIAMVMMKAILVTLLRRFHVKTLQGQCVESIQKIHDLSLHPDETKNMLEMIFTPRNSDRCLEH
Description: (§1) Inhibition of Cytochrome P450 19A1 at the concentration of 0.25 uM

Series [2] concerns the target T1, Aromatase. The source holds these as a separate data set.
Description: (§2) Inhibition of Cytochrome P450 19A1 at the concentration of 0.75 uM
Series [3] concerns the target T1, Aromatase. This is another data set of the same source.
Description: (§3) Inhibition of Cytochrome P450 19A1 at the concentration of 1.5 uM
For series [4], the target named is T1, Aromatase. The series can be described thus: Evaluated for its competitive inhibitory activity against Cytochrome P450 19A1 with the use of human placental microsomal preparation. Details: species or system Placenta. The following applies: read-out: Ki app.
In series [5] the target is T1, Aromatase. The following applies: 0.25 µM.
Description: as §1
In series [6] the target is T1, Aromatase. The following applies: 0.75 µM.
Description: as §2
Series [7] deals with T1, Aromatase. The following applies: 1.5 µM.
Description: as §3

SMILES strings stand for the structures.

One may read the inhibition as how much of the control response was suppressed. Lower therefore signals a response near the control. What is called Inhibition is the relative decrease from the control value, in per cent. A high value points to a response far below the control.

In turn, `CC12CCC3C(CCC4=C(Sc5ccc(Br)cc5)C(=O)CCC43C)C1CCC2=O` (stereo not drawn) registered an inhibition at 0.25 µM against Aromatase [1] of 0%. Further, the inhibition at 0.75 µM at Aromatase [2] is 4%. At Aromatase [3], the inhibition at 1.5 µM was found to be 6%.

`CC12CCC3C(CCC4=C(Sc5ccc([N+](=O)[O-])cc5)C(=O)CCC43C)C1CCC2=O` (stereo not drawn) came in with an inhibition at 0.25 µM against Aromatase [1] of 0%. The same compound came in with an inhibition at 0.75 µM against Aromatase [2] of 0%. Moreover, the inhibition at 1.5 µM at Aromatase [3] was 0%.

As to `CSC1=C2CCC3C4CCC(=O)C4(C)CCC3C2(C)CCC1=O` (stereo not drawn), at Aromatase [4], the Ki turned out to be 59 nM. Also, at Aromatase [1], the inhibition at 0.25 µM was 39%. Moreover, at 0.75 µM the inhibition against Aromatase [2] was 61%. Further, the inhibition at 1.5 µM on Aromatase [3] was found to be 74%.

`C[C@]12CCC(=O)C(O)=C1CC[C@@H]1[C@@H]2CC[C@]2(C)C(=O)CC[C@@H]12` [FORMESTANE]: the Ki on Aromatase [4] is 54 nM. The inhibition at 0.25 µM against Aromatase [1] was 49%. The compound also displayed an inhibition at 0.75 µM at Aromatase [2] of 74%. Moreover, on Aromatase [3], the inhibition at 1.5 µM was 84%.

In the case of `CC12CCC3C(CCC4=C(Sc5ccc(N)cc5)C(=O)CCC43C)C1CCC2=O` (stereo in doubt), the Ki on Aromatase [4] was 18 nM. Further, the Inhibition on Aromatase [5] is 46%; at Aromatase [6] it was 70%; at Aromatase [7], 82%.

In the case of `CC12CCC3C(CCC4=C(Sc5ccccc5)C(=O)CCC43C)C1CCC2=O` (stereo not drawn), the Ki on Aromatase [4] was determined as 36 nM. The compound also had an inhibition at 0.25 µM against Aromatase [1] of 36%. Besides, at 0.75 µM the inhibition against Aromatase [2] was 55%. Further, the inhibition at 1.5 µM against Aromatase [3] came to 68%.

The compound `COc1ccc(SC2=C3CCC4C5CCC(=O)C5(C)CCC4C3(C)CCC2=O)cc1` (stereo not drawn) displayed an inhibition at 0.25 µM against Aromatase [1] of 0%. This compound also returned an inhibition at 0.75 µM on Aromatase [2] of 0%. Further, the inhibition at 1.5 µM on Aromatase [3] was found to be 2%.

In the case of `CCCCSC1=C2CCC3C4CCC(=O)C4(C)CCC3C2(C)CCC1=O` (stereo not drawn), on Aromatase [1], the inhibition at 0.25 µM stood at 8%. For the same compound, on Aromatase [2], the inhibition at 0.75 µM was determined as 12%. In addition, 1.5 µM produced 18% inhibition against Aromatase [3].

On to `CC(=O)OC1=C2CCC3C4CCC(=O)C4(C)CCC3C2(C)CCC1=O` (stereo not drawn), for which 0.25 µM produced 38% inhibition at Aromatase [1]. Further, at Aromatase [2], testing at 0.75 µM gave an inhibition of 70%. The inhibition at 1.5 µM against Aromatase [3] amounted to 78%.

On to `Cc1ccc(SC2=C3CCC4C5CCC(=O)C5(C)CCC4C3(C)CCC2=O)cc1` (stereo not drawn), for which 0.25 µM produced 14% inhibition at Aromatase [1]. In addition, at Aromatase [2], at 0.75 µM the inhibition was 27%. The inhibition at 1.5 µM at Aromatase [3] was found to be 31%.

`CCCSC1=C2CCC3C4CCC(=O)C4(C)CCC3C2(C)CCC1=O` (stereo not drawn): on Aromatase [4], the Ki was 65 nM. The same compound showed an inhibition at 0.25 µM against Aromatase [1] of 25%. Further, the inhibition at 0.75 µM on Aromatase [2] was determined as 42%. The compound further came in with an inhibition at 1.5 µM against Aromatase [3] of 49%.

Turning to `CC12CCC3C(CCC4=C(SCc5ccccc5)C(=O)CCC43C)C1CCC2=O` (stereo not drawn), the inhibition at 0.25 µM on Aromatase [1] stood at 2%. At Aromatase [2], this compound yielded an inhibition at 0.75 µM of 5%. This compound also came in with an inhibition at 1.5 µM on Aromatase [3] of 8%.

For `CC12CCC3C(CCC4=C(Sc5ccc(N)cc5)C(=O)CCC43C)C1CCC2=O` (stereo in doubt; 14), the Inhibition at Aromatase [5], at Aromatase [6] and at Aromatase [7] was 0% in each case.

In turn, `CC12CCC3C(CCC4=C(S)C(=O)CCC43C)C1CCC2=O` (stereo not drawn) showed an inhibition at 0.25 µM at Aromatase [1] of 31%. For the same compound, the inhibition at 0.75 µM on Aromatase [2] came out at 52%. This compound also came in with an inhibition at 1.5 µM at Aromatase [3] of 63%.

On to `CCCCCSC1=C2CCC3C4CCC(=O)C4(C)CCC3C2(C)CCC1=O` (stereo not drawn), for which the inhibition at 0.25 µM against Aromatase [1] worked out at 2%. At Aromatase [2], this compound came in with an inhibition at 0.75 µM of 4%. On Aromatase [3], this compound registered an inhibition at 1.5 µM of 8%.

On to `CCSC1=C2CCC3C4CCC(=O)C4(C)CCC3C2(C)CCC1=O` (stereo not drawn), for which, at Aromatase [4], the Ki worked out at 41 nM. This compound also returned an inhibition at 0.25 µM at Aromatase [1] of 26%. The same compound gave an inhibition at 0.75 µM on Aromatase [2] of 45%. The same compound registered an inhibition at 1.5 µM on Aromatase [3] of 52%.

`CC(=O)SC1=C2CCC3C4CCC(=O)C4(C)CCC3C2(C)CCC1=O` (stereo not drawn): the Ki at Aromatase [4] came to 73 nM. On Aromatase [1], this compound showed an inhibition at 0.25 µM of 19%. The compound further gave an inhibition at 0.75 µM against Aromatase [2] of 42%. The same compound registered an inhibition at 1.5 µM on Aromatase [3] of 58%.
